“Also recorded” adds a separate entry of the source. Read-outs that look alike come from different tables or passages of the source.
Assays:
[1] = system: recombinant GII.4 polymerase (NV RdRp); assay: Differential scanning fluorimetry (DSF) binding to recombinant NV polymerase; set-up: species or system Human Norovirus
Description: Differential Scanning Fluorimetry (DSF)
This method is used to examine the binding of proteins to drugs (31). The principle for the assay is that the thermal denaturation profile of the protein could be changed when it is complexed to the drug. To perform the assay, thermal melting curves of NV RdRp in the presence of inhibitors were obtained in 96-well plates using Stratagene Mx3005P Q-PCR system (Agilent Tachnologies, USA) and the fluorescent dye SYPRO Orange (Invitrogen, Carlsbad, Calif.). To evaluate the binding affinities of inhibitors, different concentrations of various drugs like VX-222, Filibuvir and Ribavirin were mixed with 20 μM purified NV RdRp and 5× concentration of SYPRO Orange. A heating rate of 1.0° C. per min was used from 25 to 90° C., and fluorescence intensity was read at excitation and emission wavelengths of 470 and 550 nm, respectively. Each sample was tested in triplicate, and the results were duplicated in at least two independent assays.

[2] = system: GII.4 NV polymerase; assay: 5BR reporter assay, GII.4 polymerase; type: cell-based, Human Norovirus; settings: for effect on GII.4 polymerase 5BR assay readout (screen): re-screened at 10 and 20 μM final concentrations, FIG. 6A
Description: (§1) The 5BR reporter assay to measure the activity of the Norovirus polymerase and other viral polymerases was performed as per Ranjith-Kumar et al. (32). The assay could also be performed with other viral proteins, such as VPg or VP1. Briefly, plasmids expressing RdRp and VPg were co-transfected along with plasmids to express RIG-I or MDA5, as well as the firefly and Renilla luciferase reporters. HEK293T or Huh 7 cells were transfected using Lipofectamine 2000 (Invitrogen, Carlsbad, Calif.) according to the manufacturer's instructions. 24 h prior to transfection, 0.75×10^5 cells were seeded into each well of Costar 96-well plates in DMEM containing 10% FBS. Cells were then typically transfected at 75% confluency with plasmid amounts detailed in the figure legends and complexed with Lipofectamine 2000 as per the manufacturer's instructions (Invitrogen, USA). Vector plasmid (pUNO-MCS) was used to maintain a constant total plasmid DNA per well. To examine the VPg effect on NV RdRp-RIG-I signaling, 293T cells were co-transfected with plasmids expressing RdRp and VPg. At 36 h after transfection, luciferase activity was measured using Dual-Glo Luciferase Assay System (Promega, Madison, Wis.) in Synergy 2 microplate reader (BioTek, Winooski, Vt.).
Where inhibitors were added to the cells for the 5BR assay, they were added 2 h after transfection of the plasmids.
We have previously developed an easily manipulative, cell-based assay to assess RNA synthesis by viral polymerases. The 5BR assay was validated for the 1b HCV polymerase (NS5B) and has since been established for several other viruses that cannot infect cultured human cells (32 and data not shown). The assay works by having the viral polymerase synthesize RNAs, which then act as agonists to activate RIG-I and/or MDA5. Receptor activation induces Firefly luciferase reporter expression which is driven by the interferon beta promoter (FIG. 2A). A Renilla luciferase is expressed in the same cells to report on the transfection efficiency and possible cytopathic effects. The polymerase from the GII.4 strain of Norwalk virus is the prototype in our assay.
The 5BR assay format has been validated for studies of nonnucleoside and nucleoside inhibitors (NNI, NI, respectively) of the 1b and 2a HCV polymerase and how resistant mutations can prevent inhibition (32). Using this format, we performed a proof-of-concept screen for inhibitor of the GII.4 polymerase. […] The hits were re-screened at 10 and 20 μM final concentrations (FIG. 6A). […] This is consistent with the results of Chang et al., (18) although Ribavirin is known to have pleiotropic effects on cellular as well as viral processes (66).

[3] = biological target: GII.4 polymerase-VPg complex; assay: 5BR reporter assay, GII.4 polymerase-VPg complex; type: cell-based, Human Norovirus
Description: as §1
(§2) Where inhibitors were added to the cells for the 5BR assay, they were added 2 h after transfection of the plasmids. […]

[4] = system: RIG-I signaling; assay: RIG-I signaling in the absence of the NV polymerase; type: cell-based, human; settings: absence of the NV polymerase (data not shown)
Description: as §1, with “Vt.). […]” for “Vt.).”

[5] = biological target: T1, MNV polymerase (Norovirus, UniProt Q80J95); assay: 5BR reporter assay, MNV polymerase; type: cell-based, Mouse norovirus; settings: 5BR assay; read-out: EC50, inhibition of MNV polymerase
T1 construct: NS7, the RNA-dependent RNA polymerase (RdRp), and NS5 (VPg), the protein primer; expressed in transfected cells; host or cells: HEK293T or Huh 7
Description: as §1, §2

Compound | effect in the DSF assay ([1]; recombinant GII.4 polymerase) | effect on GII.4 polymerase 5BR assay readout (screen) [2] | concentration at which the thermal denaturation profile starts to shift ([1]; nucleoside form) [µM] | shift of thermal denaturation profile (apparent Tm) of GII.4 polymerase ([1]; absence of VPg, apparent Tm of polymerase alone ~43.5° C.) | EC50 ([3]; 5BR assay, VPg co-expressed, read-out: EC50 with GII.4 polymerase-VPg complex) [µM] | EC50 ([3]; library screen, read-out: EC50, inhibitor of human norovirus polymerase-VPg complex) [µM] | EC50 ([2]; 5BR assay, polymerase alone (no VPg), read-out: EC50, inhibition of GII4 polymerase) [µM] | EC50 ([2]; HEK293T cells, 5BR assay, read-out: effective concentration for inhibition) [µM] | inhibition of GII.4 NV polymerase activity in Huh7 cells ([2]; Huh7 cells, 5BR assay, GII.4 VP1 co-expressed, FIG. 6C) | effect on RIG-I signaling [4] | EC50 [5] [µM]
CCc1cc(CC[C@]2(C3CCCC3)CC(O)=C(Cc3nc4nc(C)cc(C)n4n3)C(=O)O2)cc(CC)n1 [Filibuvir] | no effect | no effect; also recorded: did not affect | – | – | – | – | – | – | – | – | –
NC(=O)c1ncn([C@@H]2O[C@H](CO)[C@@H](O)[C@H]2O)n1 [Ribavirin] | – | modest inhibitory effect | 1 | – | – | – | – | – | – | – | –
VX-222 | – | – | – | more than 4.5 °C | 0.9 | < 1 | ~15 | ~0.1 | concentration-dependent inhibition | did not affect | ~15
